Measured values as given in ChEMBL document CHEMBL1629661, “Carbapenem resistance among Pseudomonas aeruginosa strains from India: evidence for nationwide endemicity of multiple metallo-beta-lactamase clones (VIM-2, -5, -6, and -11 and the newly characterized VIM-18)” (2009).
Values after ≈ are worked out from the molar mass of the structure shown.

How the values were obtained:
Type in all cases: functional
Escherichia coli [1] = assay: Ratio of MIC for Escherichia coli harboring beta-lactamase VIM-2 to MIC for Escherichia coli harboring beta-lactamase VIM-18
Escherichia coli [2] = assay: Antimicrobial activity against Escherichia coli harboring plasmid pPCRScript by Etest
Escherichia coli [3] = assay: Antimicrobial activity against Escherichia coli harboring beta-lactamase VIM-18 by Etest
Pseudomonas aeruginosa [4] = assay: Antimicrobial activity against Pseudomonas aeruginosa isolate 243-31C expressing beta-lactamase VIM-18 isolated from sputum of patient by broth microdilution method
Escherichia coli [5] = assay: Antimicrobial activity against Escherichia coli harboring beta-lactamase VIM-2 by Etest
Pseudomonas aeruginosa [6] = assay: Antimicrobial activity against Pseudomonas aeruginosa isolate 243-31C expressing beta-lactamase VIM-18 isolated from sputum of patient by broth microdilution method in presence of beta-lactamase inhibitor Tazobactam

C[C@@H](O)[C@H]1C(=O)N2C(C(=O)O)=C(S[C@@H]3CN[C@H](C(=O)Nc4cccc(C(=O)O)c4)C3)[C@H](C)[C@H]12
Ratio (Escherichia coli [1]): 9 | MIC (Escherichia coli [2]): 0.006 µg/mL (≈ 0.0126 µM) | MIC (Escherichia coli [3]): 0.016 µg/mL (≈ 0.0336 µM) | MIC (Pseudomonas aeruginosa [4]): > 8 µg/mL | MIC (Escherichia coli [5]): 0.25 µg/mL (≈ 0.526 µM)

CO/N=C(\C(=O)N[C@@H]1C(=O)N2C(C(=O)[O-])=C(C[N+]3(C)CCCC3)CS[C@H]12)c1csc(N)n1
MIC (Escherichia coli [2]): 0.032 µg/mL (≈ 0.0666 µM) | MIC (Pseudomonas aeruginosa [4]): > 16 µg/mL | MIC (Escherichia coli [5]): 0.5 µg/mL (≈ 1.04 µM)

NCC[C@H](O)C(=O)N[C@@H]1C[C@H](N)[C@@H](O[C@H]2O[C@H](CN)[C@@H](O)[C@H](O)[C@H]2O)[C@H](O)[C@H]1O[C@H]1O[C@H](CO)[C@@H](O)[C@H](N)[C@H]1O [AMIKACIN]
MIC (Pseudomonas aeruginosa [4]): > 32 µg/mL

CC1(C)S[C@@H]2[C@H](NC(=O)[C@H](N)c3ccccc3)C(=O)N2[C@H]1C(=O)O [AMPICILLIN]
MIC (Escherichia coli [2]): 4 µg/mL (≈ 11.4 µM) | MIC (Escherichia coli [3]): 64 µg/mL (≈ 183 µM) | MIC (Pseudomonas aeruginosa [4]): > 16 µg/mL | MIC (Escherichia coli [5]): > 256 µg/mL

C[C@H]1[C@H](NC(=O)/C(=N\OC(C)(C)C(=O)O)c2csc(N)n2)C(=O)N1S(=O)(=O)O [AZTREONAM]
MIC (Escherichia coli [3]): 0.032 µg/mL (≈ 0.0735 µM) | MIC (Pseudomonas aeruginosa [4]): 16 µg/mL (≈ 36.7 µM) | MIC (Escherichia coli [5]): 0.032 µg/mL (≈ 0.0735 µM)

Cc1nnc(SCC2=C(C(=O)O)N3C(=O)[C@@H](NC(=O)Cn4cnnn4)[C@H]3SC2)s1 [CEFAZOLIN]
Ratio (Escherichia coli [1]): 4 | MIC (Escherichia coli [2]): 2 µg/mL (≈ 4.4 µM) | MIC (Escherichia coli [3]): 32 µg/mL (≈ 70.4 µM) | MIC (Pseudomonas aeruginosa [4]): > 16 µg/mL | MIC (Escherichia coli [5]): > 256 µg/mL

CO/N=C(\C(=O)N[C@@H]1C(=O)N2C(C(=O)O)=C(COC(C)=O)CS[C@H]12)c1csc(N)n1 [CEFOTAXIME]
MIC (Escherichia coli [2]): 0.064 µg/mL (≈ 0.141 µM) | MIC (Escherichia coli [3]): 2 µg/mL (≈ 4.39 µM) | MIC (Escherichia coli [5]): 4 µg/mL (≈ 8.78 µM)

CO[C@@]1(NC(=O)Cc2cccs2)C(=O)N2C(C(=O)O)=C(COC(N)=O)CS[C@@H]21 [CEFOXITIN]
Ratio (Escherichia coli [1]): >6 | MIC (Escherichia coli [2]): 4 µg/mL (≈ 9.36 µM) | MIC (Escherichia coli [3]): 8 µg/mL (≈ 18.7 µM) | MIC (Pseudomonas aeruginosa [4]): > 16 µg/mL | MIC (Escherichia coli [5]): > 256 µg/mL

CC(C)(O/N=C(\C(=O)N[C@@H]1C(=O)N2C(C(=O)[O-])=C(C[n+]3ccccc3)CS[C@H]12)c1csc(N)n1)C(=O)O [CEFTAZIDIME]
MIC (Escherichia coli [2]): 0.125 µg/mL (≈ 0.229 µM) | MIC (Escherichia coli [3]): 16 µg/mL (≈ 29.3 µM) | MIC (Pseudomonas aeruginosa [4]): > 16 µg/mL | MIC (Escherichia coli [5]): 4 µg/mL (≈ 7.32 µM)

CO/N=C(\C(=O)N[C@@H]1C(=O)N2C(C(=O)O)=C(CSc3nc(=O)c(O)nn3C)CS[C@H]12)c1csc(N)n1 [CEFTRIAXONE]
MIC (Pseudomonas aeruginosa [4]): > 32 µg/mL

O=C(O)c1cn(C2CC2)c2cc(N3CCNCC3)c(F)cc2c1=O [CIPROFLOXACIN]
MIC (Pseudomonas aeruginosa [4]): 0.06 µg/mL (≈ 0.181 µM)

C[C@@H](O)[C@H]1C(=O)N2C(C(=O)O)=C(S[C@@H]3CN[C@H](CNS(N)(=O)=O)C3)[C@H](C)[C@H]12 [DORIPENEM]
MIC (Pseudomonas aeruginosa [4]): 4 µg/mL (≈ 9.51 µM)

C[C@@H](O)[C@H]1C(=O)N2C(C(=O)O)=C(SCCNC=N)C[C@H]12 [IMIPENEM ANHYDROUS]
MIC (Pseudomonas aeruginosa [4]): 8 µg/mL (≈ 26.7 µM) | MIC (Escherichia coli [5]): 0.5 µg/mL (≈ 1.67 µM)

C[C@@H](O)[C@H]1C(=O)N2C(C(=O)O)=C(S[C@@H]3CN[C@H](C(=O)N(C)C)C3)[C@H](C)[C@H]12 [MEROPENEM]
MIC (Escherichia coli [2]): 0.032 µg/mL (≈ 0.0834 µM) | MIC (Escherichia coli [3]): 0.064 µg/mL (≈ 0.167 µM) | MIC (Pseudomonas aeruginosa [4]): 8 µg/mL (≈ 20.9 µM) | MIC (Escherichia coli [5]): 0.125 µg/mL (≈ 0.326 µM)

CCN1CCN(C(=O)N[C@@H](C(=O)N[C@@H]2C(=O)N3[C@@H]2SC(C)(C)[C@@H]3C(=O)O)c2ccccc2)C(=O)C1=O [PIPERACILLIN]
MIC (Escherichia coli [2]): 2 µg/mL (≈ 3.86 µM) | MIC (Escherichia coli [3]): 8 µg/mL (≈ 15.5 µM) | MIC (Pseudomonas aeruginosa [4]): > 64 µg/mL | MIC (Pseudomonas aeruginosa [6]): > 64 µg/mL | MIC (Escherichia coli [5]): 4 µg/mL (≈ 7.73 µM)

CN(C)[C@@H]1C(O)=C(C(N)=O)C(=O)[C@@]2(O)C(O)=C3C(=O)c4c(O)cccc4[C@@](C)(O)[C@H]3C[C@@H]12 [TETRACYCLINE]
MIC (Pseudomonas aeruginosa [4]): > 8 µg/mL

NC[C@H]1O[C@H](O[C@H]2[C@H](O)[C@@H](O[C@H]3O[C@H](CO)[C@@H](O)[C@H](N)[C@H]3O)[C@H](N)C[C@@H]2N)[C@H](N)C[C@@H]1O [TOBRAMYCIN]
MIC (Pseudomonas aeruginosa [4]): > 16 µg/mL

GENTAMICIN
MIC (Pseudomonas aeruginosa [4]): 8 µg/mL

POLYMYXIN B
MIC (Pseudomonas aeruginosa [4]): 1 µg/mL
